The values that follow come from ChEMBL document CHEMBL1153261, “Retro-Inverso Tripeptide Renin Inhibitors” (Bioorg Med Chem Lett, 1992).

Molecules are shown by their SMILES. Square brackets hold non-standard residues; d marks the D form. Peptide text beside a SMILES is read from it. * marks the point of attachment. Leu(ol) = CC(C)C[C@H](N)CO; Boc = CC(C)(C)OC(=O)*

The experiment concerns the target T1, Renin (Homo sapiens, UniProt P00797).
T1 sequence (P00797 whole entry): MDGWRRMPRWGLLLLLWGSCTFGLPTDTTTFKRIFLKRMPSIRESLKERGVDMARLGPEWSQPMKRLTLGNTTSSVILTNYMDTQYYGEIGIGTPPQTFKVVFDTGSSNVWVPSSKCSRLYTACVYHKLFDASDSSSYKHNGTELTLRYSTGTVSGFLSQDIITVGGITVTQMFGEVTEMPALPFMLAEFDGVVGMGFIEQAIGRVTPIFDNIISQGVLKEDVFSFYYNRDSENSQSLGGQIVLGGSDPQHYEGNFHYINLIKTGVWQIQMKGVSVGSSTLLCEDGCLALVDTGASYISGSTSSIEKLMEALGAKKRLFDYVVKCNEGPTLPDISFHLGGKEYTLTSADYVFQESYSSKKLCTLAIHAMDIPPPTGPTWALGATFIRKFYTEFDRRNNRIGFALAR
Briefly: Compound was evaluated for inhibitory activity against renin. The settings on record: read-out: I50.
As to `CC(C)C[C@@H](CO)C(=O)N[C@H](Cc1c[nH]cn1)C(=O)N[C@H](Cc1ccccc1)C(=O)NCC(C)(C)C`, the IC50 came to 20 µM. As to `CC(C)C[C@@H](CO)NC(=O)[C@H](Cc1c[nH]cn1)C(=O)N[C@H](Cc1ccccc1)C(=O)NCC(C)(C)C`, the IC50 came out at 1200 µM. In the case of `CC(C)C[C@H](CO)C(=O)N[C@H](Cc1c[nH]cn1)C(=O)N[C@H](Cc1ccccc1)C(=O)NCC(C)(C)C`, the IC50 was determined as 80 µM.

`CC(C)C[C@@H](CO)NC(=O)[C@H](Cc1cnc[nH]1)NC(=O)[C@H](Cc1ccccc1)NC(=O)OC(C)(C)C` (Boc-Phe-His-[Leu(ol)]): the IC50 was determined as 16 µM.
